Assay results as given in publication PMC3914206.

What was measured:
Type in all cases: binding
panel of 442 kinases [1] = target: T1, panel of 442 kinases (Homo sapiens, UniProt O75676); details: Compound Concentration 10 µM
T1 construct: purchased KINOMEscan
From the text: (§1) We assessed the selectivity of members of this scaffold using the KINOMEscan methodology across a near comprehensive panel of 442 kinases [[18,27]].

panel of 442 kinases [2] = target: T2, panel of 442 kinases (Homo sapiens, UniProt P0C1S8); details: kinase WEE2; compound concentration 10 µM
T2 construct: purchased KINOMEscan
T2 sequence (P0C1S8 whole entry): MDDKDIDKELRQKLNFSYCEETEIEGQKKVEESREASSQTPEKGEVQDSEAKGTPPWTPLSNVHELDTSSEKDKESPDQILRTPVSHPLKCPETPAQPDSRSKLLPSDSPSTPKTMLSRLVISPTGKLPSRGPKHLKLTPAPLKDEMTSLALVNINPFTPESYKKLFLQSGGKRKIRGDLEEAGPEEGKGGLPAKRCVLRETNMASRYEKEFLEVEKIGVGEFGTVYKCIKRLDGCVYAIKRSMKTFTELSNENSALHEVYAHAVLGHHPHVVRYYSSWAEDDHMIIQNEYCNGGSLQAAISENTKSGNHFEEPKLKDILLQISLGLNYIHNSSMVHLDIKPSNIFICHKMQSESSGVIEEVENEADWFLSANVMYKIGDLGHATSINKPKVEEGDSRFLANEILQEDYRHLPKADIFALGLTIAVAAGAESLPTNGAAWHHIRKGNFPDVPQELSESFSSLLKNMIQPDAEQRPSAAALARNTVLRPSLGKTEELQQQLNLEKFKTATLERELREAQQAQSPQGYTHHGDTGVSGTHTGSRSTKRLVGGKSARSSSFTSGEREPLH
From the text: as §1

panel of 442 kinases [3] = target: T3, panel of 442 kinases (Homo sapiens, UniProt Q9P2K8, S808G); details: Compound Concentration 10 µM
T3 construct: purchased KINOMEscan
T3 sequence (Q9P2K8 whole entry S808G): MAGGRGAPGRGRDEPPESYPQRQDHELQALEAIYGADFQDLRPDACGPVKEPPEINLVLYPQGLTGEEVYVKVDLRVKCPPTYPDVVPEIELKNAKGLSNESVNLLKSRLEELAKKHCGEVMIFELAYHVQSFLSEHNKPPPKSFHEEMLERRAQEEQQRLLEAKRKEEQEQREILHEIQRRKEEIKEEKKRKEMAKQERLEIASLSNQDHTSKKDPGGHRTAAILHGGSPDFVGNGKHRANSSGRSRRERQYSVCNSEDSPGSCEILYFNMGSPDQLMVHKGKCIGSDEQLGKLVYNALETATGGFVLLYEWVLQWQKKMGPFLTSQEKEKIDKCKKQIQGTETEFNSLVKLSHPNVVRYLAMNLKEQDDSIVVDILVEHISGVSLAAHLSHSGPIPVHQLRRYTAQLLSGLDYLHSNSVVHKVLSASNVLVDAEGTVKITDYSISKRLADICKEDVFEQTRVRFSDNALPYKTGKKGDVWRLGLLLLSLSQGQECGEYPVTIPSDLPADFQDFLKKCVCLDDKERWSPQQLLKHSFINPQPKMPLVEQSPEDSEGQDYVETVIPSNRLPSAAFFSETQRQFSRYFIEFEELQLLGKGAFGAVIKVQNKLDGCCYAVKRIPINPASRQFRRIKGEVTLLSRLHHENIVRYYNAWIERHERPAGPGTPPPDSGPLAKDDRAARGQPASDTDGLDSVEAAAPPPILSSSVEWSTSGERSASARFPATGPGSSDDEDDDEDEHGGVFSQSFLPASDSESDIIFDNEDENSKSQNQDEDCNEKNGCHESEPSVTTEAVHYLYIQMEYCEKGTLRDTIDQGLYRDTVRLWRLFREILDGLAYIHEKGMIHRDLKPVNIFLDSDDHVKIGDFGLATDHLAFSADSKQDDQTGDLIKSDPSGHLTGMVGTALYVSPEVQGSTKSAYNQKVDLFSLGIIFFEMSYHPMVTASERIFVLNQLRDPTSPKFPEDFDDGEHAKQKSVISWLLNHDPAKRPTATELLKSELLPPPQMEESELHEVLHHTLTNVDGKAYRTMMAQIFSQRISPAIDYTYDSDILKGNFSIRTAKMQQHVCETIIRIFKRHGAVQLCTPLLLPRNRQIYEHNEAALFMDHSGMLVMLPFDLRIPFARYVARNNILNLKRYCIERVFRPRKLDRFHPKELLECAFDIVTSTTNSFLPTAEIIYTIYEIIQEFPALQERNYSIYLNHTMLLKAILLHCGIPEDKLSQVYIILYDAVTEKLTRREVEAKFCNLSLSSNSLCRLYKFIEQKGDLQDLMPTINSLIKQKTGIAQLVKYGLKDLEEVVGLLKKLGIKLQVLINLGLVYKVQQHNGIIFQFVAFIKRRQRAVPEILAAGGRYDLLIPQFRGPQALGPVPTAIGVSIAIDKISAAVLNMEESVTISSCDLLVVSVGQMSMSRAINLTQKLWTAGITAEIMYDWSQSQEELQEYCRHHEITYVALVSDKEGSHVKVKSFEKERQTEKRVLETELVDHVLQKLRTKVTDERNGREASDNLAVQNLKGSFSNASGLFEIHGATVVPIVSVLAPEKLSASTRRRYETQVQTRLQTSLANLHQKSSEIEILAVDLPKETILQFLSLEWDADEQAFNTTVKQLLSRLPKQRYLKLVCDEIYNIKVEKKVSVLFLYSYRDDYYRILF
From the text: as §1

panel of 442 kinases [4] = target: T4, panel of 442 kinases (Homo sapiens, UniProt P07949, M918T); details: Compound Concentration 10 µM
T4 construct: purchased KINOMEscan
T4 sequence (P07949 29-1114 M918T): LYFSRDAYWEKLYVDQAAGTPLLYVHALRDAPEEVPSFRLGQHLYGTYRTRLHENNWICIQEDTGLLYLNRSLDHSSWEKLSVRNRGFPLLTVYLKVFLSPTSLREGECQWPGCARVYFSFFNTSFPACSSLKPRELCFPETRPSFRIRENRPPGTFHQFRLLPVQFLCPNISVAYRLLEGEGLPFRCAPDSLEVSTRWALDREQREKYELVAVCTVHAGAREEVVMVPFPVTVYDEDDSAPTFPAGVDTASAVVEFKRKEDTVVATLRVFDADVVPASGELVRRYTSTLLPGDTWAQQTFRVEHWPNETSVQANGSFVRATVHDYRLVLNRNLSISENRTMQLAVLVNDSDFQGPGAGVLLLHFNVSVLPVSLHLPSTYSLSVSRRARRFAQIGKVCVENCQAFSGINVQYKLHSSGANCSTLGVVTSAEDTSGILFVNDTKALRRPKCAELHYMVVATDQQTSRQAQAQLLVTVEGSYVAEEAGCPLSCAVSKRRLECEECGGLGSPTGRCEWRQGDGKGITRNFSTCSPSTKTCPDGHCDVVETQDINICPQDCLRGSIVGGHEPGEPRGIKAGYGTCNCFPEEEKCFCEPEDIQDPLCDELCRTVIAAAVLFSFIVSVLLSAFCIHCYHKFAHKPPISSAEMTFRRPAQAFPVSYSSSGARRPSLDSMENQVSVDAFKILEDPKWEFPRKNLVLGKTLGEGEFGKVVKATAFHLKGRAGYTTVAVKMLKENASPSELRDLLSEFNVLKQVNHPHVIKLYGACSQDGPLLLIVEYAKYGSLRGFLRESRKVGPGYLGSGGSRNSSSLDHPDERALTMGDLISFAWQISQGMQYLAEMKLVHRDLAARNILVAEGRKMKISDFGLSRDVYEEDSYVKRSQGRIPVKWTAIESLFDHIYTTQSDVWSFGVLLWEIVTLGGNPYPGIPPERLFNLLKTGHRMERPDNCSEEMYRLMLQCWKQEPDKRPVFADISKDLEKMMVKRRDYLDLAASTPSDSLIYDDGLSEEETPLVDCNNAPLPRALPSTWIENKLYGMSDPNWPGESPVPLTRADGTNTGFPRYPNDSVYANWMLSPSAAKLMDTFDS
From the text: as §1

T1 sequence (O75676 whole entry): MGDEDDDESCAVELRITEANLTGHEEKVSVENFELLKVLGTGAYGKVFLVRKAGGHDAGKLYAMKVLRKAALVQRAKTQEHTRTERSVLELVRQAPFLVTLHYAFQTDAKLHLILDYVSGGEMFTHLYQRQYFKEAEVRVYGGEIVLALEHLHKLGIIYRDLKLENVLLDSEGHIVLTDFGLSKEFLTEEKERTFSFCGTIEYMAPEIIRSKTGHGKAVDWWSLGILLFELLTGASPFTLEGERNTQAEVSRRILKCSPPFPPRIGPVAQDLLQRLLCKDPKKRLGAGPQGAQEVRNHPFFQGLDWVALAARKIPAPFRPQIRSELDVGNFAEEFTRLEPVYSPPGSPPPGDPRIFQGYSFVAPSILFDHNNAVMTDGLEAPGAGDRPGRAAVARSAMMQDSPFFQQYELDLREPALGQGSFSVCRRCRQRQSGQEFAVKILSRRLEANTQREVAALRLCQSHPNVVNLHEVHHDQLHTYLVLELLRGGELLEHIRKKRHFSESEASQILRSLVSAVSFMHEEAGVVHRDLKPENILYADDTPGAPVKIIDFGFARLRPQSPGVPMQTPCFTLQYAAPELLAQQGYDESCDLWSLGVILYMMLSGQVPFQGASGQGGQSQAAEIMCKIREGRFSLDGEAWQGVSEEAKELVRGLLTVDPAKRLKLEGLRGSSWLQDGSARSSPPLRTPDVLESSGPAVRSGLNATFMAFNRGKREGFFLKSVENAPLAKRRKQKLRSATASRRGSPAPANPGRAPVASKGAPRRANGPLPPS

Compound: COc1cc(C(=O)N2CCC(N3CCN(C)CC3)CC2)ccc1Nc1ncc2c(n1)N(C1CCCC1)c1ccccc1C(=O)N2C [Compound 25, 11-cyclopentyl-2-((2-methoxy-4-(4-(4-methylpiperazin-1-yl)piperidine-1-carbonyl)phenyl)amino)-5-methyl-5H-benzo[e]pyrimido[5,4-b][1,4]diazepin-6(11H)-one]
- KINOMEscan: RPS6KA4(Kin.Dom.1-N-terminal) (panel of 442 kinases [1]): 100
- KINOMEscan: RPS6KA4(Kin.Dom.2-C-terminal) (panel of 442 kinases [1]): 100
- % Ctrl, WEE2 (panel of 442 kinases [2]): 100 % Ctrl
- KINOMEscan: GCN2(Kin.Dom.2,S808G) (panel of 442 kinases [3]): 100
- KINOMEscan: RET(M918T) (panel of 442 kinases [4]): 94

Compound: CCOc1cc(C(=O)N2CCC(N3CCN(C)CC3)CC2)ccc1Nc1ncc2c(n1)N(C1CCCC1)c1ccccc1C(=O)N2C [Compound 26]
- KINOMEscan: RPS6KA4(Kin.Dom.1-N-terminal) (panel of 442 kinases [1]): 100
- KINOMEscan: RPS6KA4(Kin.Dom.2-C-terminal) (panel of 442 kinases [1]): 100
- % Ctrl, WEE2 (panel of 442 kinases [2]): 100 % Ctrl
- KINOMEscan: GCN2(Kin.Dom.2,S808G) (panel of 442 kinases [3]): 95
- KINOMEscan: RET(M918T) (panel of 442 kinases [4]): 100

Compound: COc1cc(C(=O)N2CCC(N3CCN(C)CC3)CC2)ccc1Nc1ncc2c(n1)N1CCc3cccc(c31)C(=O)N2C [Compound 24]
- KINOMEscan: RPS6KA4(Kin.Dom.2-C-terminal) (panel of 442 kinases [1]): 0.65
- % Ctrl, WEE2 (panel of 442 kinases [2]): 100 % Ctrl
- KINOMEscan: GCN2(Kin.Dom.2,S808G) (panel of 442 kinases [3]): 79
- KINOMEscan: RET(M918T) (panel of 442 kinases [4]): 81

Compound: COc1cc(C(=O)N2CCC(N3CCN(C)CC3)CC2)ccc1Nc1ncc2c(n1)N(C)c1ccccc1C(=O)N2C [15 (LRRK2-IN-1)]
- KINOMEscan: RPS6KA4(Kin.Dom.1-N-terminal) (panel of 442 kinases [1]): 100
- KINOMEscan: RPS6KA4(Kin.Dom.2-C-terminal) (panel of 442 kinases [1]): 46
- % Ctrl, WEE2 (panel of 442 kinases [2]): 100 % Ctrl
- KINOMEscan: GCN2(Kin.Dom.2,S808G) (panel of 442 kinases [3]): 95
- KINOMEscan: RET(M918T) (panel of 442 kinases [4]): 100
